Test results as given in patent publication US11419335B2, “N-arylated analogues and uses thereof” (University of Florida Research Foundation, Incorporated, priority 2016, dated 2022).
Where two headings read alike, the source gives them in different places. Marks after values point to notes of the source that are not given here.

Key:
[1] = system: methicillin-resistant Staphylococcus aureus MRSA-2 (clinical isolate); test: MIC broth microdilution, MRSA-2; assay type: cell-based
Description: (§1) The minimum inhibitory concentration (MIC) for each tested compound was determined by the broth microdilution method as recommended by the Clinical and Laboratory Standards Institute (CLSI). In a 96-well plate, eleven two-fold serial dilutions of each compound were made in a final volume of 100 μL Luria Broth. Each well was inoculated with ˜10^5 bacterial cells at the initial time of incubation, prepared from a fresh log phase culture (OD600 of 0.5 to 1.0 depending on bacterial strain). The MIC was defined as the lowest concentration of compound that prevented bacterial growth after incubating 16 to 18 hours at 37° C. (MIC values were supported by spectrophotometric readings at OD600). DMSO served as our vehicle and negative control in each microdilution MIC assay. DMSO was serially diluted with a top concentration of 1% v/v.
as §1, with “for each compound was” for “for each tested compound was”, “Standards Institute (CLSI).^6 In a” for “Standards Institute (CLSI). In a”, “concentration of test compound that” for “concentration of compound that”, “37° C. The concentration range tested for each compound during this study was 0.10 to 100 μM. DMSO served” for “37° C. (MIC values were supported by spectrophotometric readings at OD600). DMSO served”, “1% v/v. All MIC values were obtained from a minimum of three independent experiments.” for “1% v/v.”

MRSA BAA-1707 = test: MIC broth microdilution, MRSA BAA-1707; assay type: cell-based, Staphylococcus aureus; details: for MIC MRSA 1707: Table 4; for MIC: read-out: MIC MRSA BAA-1707
Description: as §1, with “The MIC was defined as the lowest concentration of compound that prevented bacterial growth after incubating 16 to 18 hours at 37° C.” left out
(§2) Each well was inoculated with ˜10^5 bacterial cells at the initial time of incubation, prepared from a fresh log phase culture (OD600 of 0.5 to 1.0 depending on bacterial strain). […] The concentration range tested for each compound during this study was 0.10 to 100 μM. DMSO served as our vehicle and negative control in each microdilution MIC assay. DMSO was serially diluted with a top concentration of 1% v/v. All MIC values were obtained from a minimum of three independent experiments.

[2] = system: methicillin-resistant Staphylococcus epidermidis (MRSE strain ATCC 35984); test: MIC broth microdilution, MRSE 35984; assay type: cell-based; details: for MIC S. epidermidis MRSE 35984: Table 1A; for MIC MRSE 35984: Table 4
Description: as §1
as §1, with “for each compound was” for “for each tested compound was”, “Standards Institute (CLSI).^6 In a” for “Standards Institute (CLSI). In a”, “concentration of test compound that” for “concentration of compound that”, “37° C. The concentration range tested for each compound during this study was 0.10 to 100 μM. DMSO served” for “37° C. (MIC values were supported by spectrophotometric readings at OD600). DMSO served”, “1% v/v. All MIC values were obtained from a minimum of three independent experiments.” for “1% v/v.”

[3] = system: vancomycin-resistant Enterococcus faecium (VRE strain ATCC 700221); test: MIC broth microdilution, VRE 700221; assay type: cell-based; details: for MIC E. faecium VRE 700221: Table 1A; for MIC VRE 700221: Table 4
Description: as §1
as §1, with “for each compound was” for “for each tested compound was”, “Standards Institute (CLSI).^6 In a” for “Standards Institute (CLSI). In a”, “concentration of test compound that” for “concentration of compound that”, “37° C. The concentration range tested for each compound during this study was 0.10 to 100 μM. DMSO served” for “37° C. (MIC values were supported by spectrophotometric readings at OD600). DMSO served”, “1% v/v. All MIC values were obtained from a minimum of three independent experiments.” for “1% v/v.”

[4] = system: Acinetobacter baumannii (ATCC 1794); test: MIC broth microdilution, A. baumannii 1794; assay type: cell-based; details: for MIC A. baumannii 1794: Table 1A, in µM; for MIC A. bau. 1794: Table 4
Description: as §1
as §1, with “for each compound was” for “for each tested compound was”, “Standards Institute (CLSI).^6 In a” for “Standards Institute (CLSI). In a”, “concentration of test compound that” for “concentration of compound that”, “37° C. The concentration range tested for each compound during this study was 0.10 to 100 μM. DMSO served” for “37° C. (MIC values were supported by spectrophotometric readings at OD600). DMSO served”, “1% v/v. All MIC values were obtained from a minimum of three independent experiments.” for “1% v/v.”

[5] = system: Pseudomonas aeruginosa (PAO1); test: MIC broth microdilution, PAO1; assay type: cell-based
Description: as §1
as §1, with “for each compound was” for “for each tested compound was”, “Standards Institute (CLSI).^6 In a” for “Standards Institute (CLSI). In a”, “concentration of test compound that” for “concentration of compound that”, “37° C. The concentration range tested for each compound during this study was 0.10 to 100 μM. DMSO served” for “37° C. (MIC values were supported by spectrophotometric readings at OD600). DMSO served”, “1% v/v. All MIC values were obtained from a minimum of three independent experiments.” for “1% v/v.”

[6] = system: methicillin-sensitive Staphylococcus aureus ATCC 29213; test: MIC broth microdilution, S. aureus 29213; assay type: cell-based
Description: as §1, with “The MIC was defined as the lowest concentration of compound that prevented bacterial growth after incubating 16 to 18 hours at 37° C.” left out
as §2

[7] = system: MRSA-1 (clinical isolate); test: MIC broth microdilution, MRSA-1; assay type: cell-based, Staphylococcus aureus
Description: as §1, with “The MIC was defined as the lowest concentration of compound that prevented bacterial growth after incubating 16 to 18 hours at 37° C.” left out
as §2

[8] = system: SA-129 (clinical isolate); test: MIC broth microdilution, SA-129; assay type: cell-based, Staphylococcus aureus
Description: as §1, with “The MIC was defined as the lowest concentration of compound that prevented bacterial growth after incubating 16 to 18 hours at 37° C.” left out
as §2

[9] = system: SA-147 (clinical isolate); test: MIC broth microdilution, SA-147; assay type: cell-based, Staphylococcus aureus
Description: as §1, with “The MIC was defined as the lowest concentration of compound that prevented bacterial growth after incubating 16 to 18 hours at 37° C.” left out
as §2

[10] = system: SA-138 (clinical isolate); test: MIC broth microdilution, SA-138; assay type: cell-based, Staphylococcus aureus
Description: as §1, with “The MIC was defined as the lowest concentration of compound that prevented bacterial growth after incubating 16 to 18 hours at 37° C.” left out
as §2

[11] = system: SA-156 (clinical isolate); test: MIC broth microdilution, SA-156; assay type: cell-based, Staphylococcus aureus
Description: as §1, with “The MIC was defined as the lowest concentration of compound that prevented bacterial growth after incubating 16 to 18 hours at 37° C.” left out
as §2

MRSA BAA-44 = test: MIC broth microdilution, MRSA BAA-44; assay type: cell-based, Staphylococcus aureus
Description: as §1, with “The MIC was defined as the lowest concentration of compound that prevented bacterial growth after incubating 16 to 18 hours at 37° C.” left out
as §2

**Q.** `CCCCCCCCCCCCCCCCn1cc[n+](CCCC)c1C.[Br-]` [Compound 9] was tested. Which “MIC MRSA-2” value ([1]; Table 1A) did it give?
**A.** 2.35^a

**Q.** And the “MIC MRSA-2” value ([1]; Table 1B)?
**A.** 2.35^a μM

**Q.** And the “MIC MRSA-2” value ([1]; Table 3)?
**A.** 2.35^a μM

**Q.** What about the “MIC MRSA-2” value ([1]; Table 4) of the same molecule?
**A.** 2.35a micromolar

**Q.** What about the “MIC MRSA BAA-1707” value (MRSA BAA-1707; Table 1B) of the same molecule?
**A.** 2.35^a μM

**Q.** And the “MIC MRSA BAA-1707” value (MRSA BAA-1707; Table 3)?
**A.** 2.35^a μM

**Q.** What about the “MIC MRSA 1707” value (MRSA BAA-1707) of the same molecule?
**A.** 2.35a micromolar

**Q.** What about the “MIC S. epidermidis MRSE 35984” value [2] of the same molecule?
**A.** 1.17^a

**Q.** What about the “MIC MRSE 35984” value [2] of the same molecule?
**A.** 1.17a micromolar

**Q.** And the “MIC E. faecium VRE 700221” value [3]?
**A.** 1.17^a

**Q.** What about the “MIC VRE 700221” value [3] of the same molecule?
**A.** 1.17a micromolar

**Q.** And the “MIC A. baumannii 1794” value [4]?
**A.** 12.5

**Q.** What about the “MIC A. bau. 1794” value [4] of the same molecule?
**A.** 12.5 µM

**Q.** And the MIC PAO1 ([5]; Table 1A)?
**A.** > 100 µM

**Q.** And the “MIC PAO1” value ([5]; Table 4)?
**A.** >100 µM

**Q.** And the “MIC S. aureus 29213” value ([6]; Table 1B)?
**A.** 2.35^a μM

**Q.** What about the “MIC S. aureus 29213” value ([6]; Table 3) of the same molecule?
**A.** 2.35^a μM

**Q.** What about the MIC ([7]; Table 1B) of the same molecule?
**A.** 1.56 µM

**Q.** And the MIC ([7]; Table 3)?
**A.** 1.56 µM

**Q.** And the MIC ([8]; Table 1B)?
**A.** 1.56 µM

**Q.** And the MIC ([8]; Table 3)?
**A.** 1.56 µM

**Q.** What about the “MIC SA-147” value ([9]; Table 1B) of the same molecule?
**A.** 1.17^a μM

**Q.** And the “MIC SA-147” value ([9]; Table 3)?
**A.** 1.17^a μM

**Q.** What about the “MIC SA-138” value ([10]; Table 1B) of the same molecule?
**A.** 1.17^a μM

**Q.** What about the “MIC SA-138” value ([10]; Table 3) of the same molecule?
**A.** 1.17^a μM

**Q.** And the “MIC SA-156” value ([11]; Table 1B)?
**A.** 2.35^s μM

**Q.** And the “MIC SA-156” value ([11]; Table 3)?
**A.** 2.35^a μM

**Q.** What about the “MIC MRSA BAA-44” value (MRSA BAA-44; Table 1B) of the same molecule?
**A.** 2.35^a μM

**Q.** And the “MIC MRSA BAA-44” value (MRSA BAA-44; Table 3)?
**A.** 2.35^a μM

**Q.** `CCCCCCCCCCCCCCCCn1cc[n+](Cc2cccc(OC)c2)c1C.[Br-]` [Compound 17] was tested. Which MIC MRSA-2 ([1]; Table 1A) did it give?
**A.** 1.56 µM

**Q.** What about the “MIC MRSA-2” value ([1]; Table 1B) of the same molecule?
**A.** 2.35^a μM

**Q.** And the “MIC MRSA-2” value ([1]; Table 3)?
**A.** 2.35^a μM

**Q.** And the “MIC MRSA-2” value ([1]; Table 4)?
**A.** 2.35a micromolar

**Q.** And the MIC (MRSA BAA-1707; Table 1B)?
**A.** 1.56 µM

**Q.** And the MIC (MRSA BAA-1707; Table 3)?
**A.** 1.56 µM

**Q.** What about the “MIC MRSA 1707” value (MRSA BAA-1707) of the same molecule?
**A.** 1.56 µM

**Q.** And the “MIC S. epidermidis MRSE 35984” value [2]?
**A.** 2.35^a

**Q.** What about the “MIC MRSE 35984” value [2] of the same molecule?
**A.** 2.35a micromolar

**Q.** What about the MIC E. faecium VRE 700221 [3] of the same molecule?
**A.** 1.56 µM

**Q.** And the “MIC VRE 700221” value [3]?
**A.** 1.56 µM

**Q.** And the “MIC A. baumannii 1794” value [4]?
**A.** >100*

**Q.** What about the “MIC A. bau. 1794” value [4] of the same molecule?
**A.** >100 µM

**Q.** What about the MIC PAO1 ([5]; Table 1A) of the same molecule?
**A.** > 100 µM

**Q.** What about the “MIC PAO1” value ([5]; Table 4) of the same molecule?
**A.** >100 µM

**Q.** What about the MIC ([6]; Table 1B) of the same molecule?
**A.** 3.13 µM

**Q.** And the MIC ([6]; Table 3)?
**A.** 3.13 µM

**Q.** What about the “MIC MRSA-1” value ([7]; Table 1B) of the same molecule?
**A.** 4.69^a μM

**Q.** What about the “MIC MRSA-1” value ([7]; Table 3) of the same molecule?
**A.** 4.69^a μM

**Q.** What about the MIC ([8]; Table 1B) of the same molecule?
**A.** 3.13 µM

**Q.** And the MIC ([8]; Table 3)?
**A.** 3.13 µM

**Q.** What about the “MIC SA-147” value ([9]; Table 1B) of the same molecule?
**A.** 2.35^a μM

**Q.** What about the “MIC SA-147” value ([9]; Table 3) of the same molecule?
**A.** 2.35^a μM

**Q.** What about the MIC ([10]; Table 1B) of the same molecule?
**A.** 3.13 µM

**Q.** What about the MIC ([10]; Table 3) of the same molecule?
**A.** 3.13 µM

**Q.** And the “MIC SA-156” value ([11]; Table 1B)?
**A.** 2.35^a μM

**Q.** And the “MIC SA-156” value ([11]; Table 3)?
**A.** 2.35^a μM

**Q.** What about the “MIC MRSA BAA-44” value (MRSA BAA-44; Table 1B) of the same molecule?
**A.** 2.35^a μM

**Q.** And the “MIC MRSA BAA-44” value (MRSA BAA-44; Table 3)?
**A.** 2.35^a μM
